In ChEMBL document CHEMBL4507278 (2021):

Key:
[1] = target: Sodium channel regulatory subunit beta-1 (Rattus norvegicus) (UniProt Q00954); experiment: NA+/SITE2/RA Eurofins-Panlabs selectivity data (BI); conditions: Compound concentration 10.0 uM
[2] = target: Sodium-dependent dopamine transporter (Homo sapiens) (UniProt Q01959); experiment: DATRANS/H Eurofins-Panlabs selectivity data (BI); conditions: Compound concentration 10.0 uM
[3] = target: Cysteinyl leukotriene receptor 1 (Homo sapiens) (UniProt Q9Y271); experiment: CYSLT1_HS Eurofins-Panlabs selectivity data (BI); conditions: Compound concentration 10.0 uM
[4] = target: Voltage-dependent N-type calcium channel subunit alpha-1B (Rattus norvegicus) (UniProt Q02294); experiment: CA+/N/RA Eurofins-Panlabs selectivity data (BI); conditions: Compound concentration 10.0 uM
[5] = target: Voltage-dependent L-type calcium channel subunit alpha-1C (DHP site) (Rattus norvegicus, UniProt P22002); experiment: CA+/DHPSI/RA Eurofins-Panlabs selectivity data (BI); conditions: compound concentration 10 uM, read-out: % Ctrl
[6] = target: Glutamate receptor ionotropic, kainate 1 (Rattus norvegicus) (UniProt P22756); experiment: KAINATE/R Eurofins-Panlabs selectivity data (BI); conditions: Compound concentration 10.0 uM
[7] = target: T1, C-C chemokine receptor type 1 (Homo sapiens) (UniProt P32246); experiment: CCR1 Eurofins-Panlabs selectivity data (BI)
T1 sequence (whole entry): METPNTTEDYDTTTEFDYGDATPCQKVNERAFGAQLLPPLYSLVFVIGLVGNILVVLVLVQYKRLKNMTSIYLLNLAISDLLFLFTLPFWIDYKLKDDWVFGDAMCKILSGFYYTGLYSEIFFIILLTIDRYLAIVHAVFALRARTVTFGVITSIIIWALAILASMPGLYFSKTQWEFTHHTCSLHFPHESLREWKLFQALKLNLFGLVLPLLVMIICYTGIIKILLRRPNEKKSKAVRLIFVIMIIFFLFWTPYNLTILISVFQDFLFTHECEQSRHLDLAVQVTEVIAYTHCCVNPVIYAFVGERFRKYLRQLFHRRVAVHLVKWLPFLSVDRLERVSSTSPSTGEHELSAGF

[8] = target: Kappa-type opioid receptor (Homo sapiens) (UniProt P41145); experiment: KAPPA/HU Eurofins-Panlabs selectivity data (BI); conditions: Compound concentration 10.0 uM
[9] = target: Substance-P receptor (Homo sapiens) (UniProt P25103); experiment: NK1/HU Eurofins-Panlabs selectivity data (BI); conditions: Compound concentration 10.0 uM
[10] = target: Neuropeptide Y receptor type 2 (Homo sapiens) (UniProt P49146); experiment: Y2/HU Eurofins-Panlabs selectivity data (BI); conditions: Compound concentration 10.0 uM
[11] = target: Voltage-dependent L-type calcium channel subunit alpha-1C (diltiazem site) (Rattus norvegicus, UniProt P22002); experiment: CA+/DILSI/RA Eurofins-Panlabs selectivity data (BI); conditions: compound concentration 10 uM, read-out: % Ctrl
[12] = target: Muscarinic acetylcholine receptor M1 (Homo sapiens) (UniProt P11229); experiment: M1/HU Eurofins-Panlabs selectivity data (BI); conditions: Compound concentration 10.0 uM
[13] = target: D(3) dopamine receptor (Homo sapiens) (UniProt P35462); conditions: Compound concentration 10.0 uM
[14] = target: Sigma non-opioid intracellular receptor 1 (Homo sapiens) (UniProt Q99720); experiment: SIGMA1/HU Eurofins-Panlabs selectivity data (BI); conditions: Compound concentration 10.0 uM
[15] = target: Delta-type opioid receptor (Homo sapiens) (UniProt P41143); experiment: DELTA/HU Eurofins-Panlabs selectivity data (BI); conditions: Compound concentration 10.0 uM
[16] = target: D(2) dopamine receptor (Homo sapiens) (UniProt P14416); experiment: D2S/HU Eurofins-Panlabs selectivity data (BI); conditions: Compound concentration 10.0 uM
[17] = target: B1 bradykinin receptor (Homo sapiens) (UniProt P46663); experiment: B1/H Eurofins-Panlabs selectivity data (BI); conditions: Compound concentration 10.0 uM
[18] = target: Gamma-aminobutyric acid receptor subunit alpha-1 (Rattus norvegicus) (UniProt P62813); experiment: GABAACENTR Eurofins-Panlabs selectivity data (BI); conditions: Compound concentration 10.0 uM
[19] = target: Epidermal growth factor receptor (Homo sapiens) (UniProt P00533); experiment: EGF/HU Eurofins-Panlabs selectivity data (BI); conditions: Compound concentration 10.0 uM
[20] = target: Androgen receptor (Rattus norvegicus) (UniProt P15207); experiment: TESTOST/RA Eurofins-Panlabs selectivity data (BI); conditions: Compound concentration 10.0 uM
[21] = target: Melatonin receptor type 1A (Homo sapiens) (UniProt P48039); experiment: MT1/H Eurofins-Panlabs selectivity data (BI); conditions: Compound concentration 10.0 uM
[22] = target: Muscarinic acetylcholine receptor M3 (Homo sapiens) (UniProt P20309); experiment: M3/HU Eurofins-Panlabs selectivity data (BI); conditions: Compound concentration 10.0 uM
[23] = target: Beta-2 adrenergic receptor (Homo sapiens) (UniProt P07550); experiment: BETA2/HU Eurofins-Panlabs selectivity data (BI); conditions: Compound concentration 10.0 uM
[24] = target: Acetylcholine receptor subunit alpha (Homo sapiens) (UniProt P02708); experiment: NACH/H Eurofins-Panlabs selectivity data (BI); conditions: Compound concentration 10.0 uM
[25] = target: Muscarinic acetylcholine receptor M3 (Homo sapiens) (UniProt P20309); conditions: Compound concentration 10.0 uM
[26] = target: T2, 5-hydroxytryptamine receptor 1A (Homo sapiens) (UniProt P08908); experiment: 5HT1A/HU Eurofins-Panlabs selectivity data (BI); conditions: Compound concentration 10.0 uM
T2 sequence (whole entry): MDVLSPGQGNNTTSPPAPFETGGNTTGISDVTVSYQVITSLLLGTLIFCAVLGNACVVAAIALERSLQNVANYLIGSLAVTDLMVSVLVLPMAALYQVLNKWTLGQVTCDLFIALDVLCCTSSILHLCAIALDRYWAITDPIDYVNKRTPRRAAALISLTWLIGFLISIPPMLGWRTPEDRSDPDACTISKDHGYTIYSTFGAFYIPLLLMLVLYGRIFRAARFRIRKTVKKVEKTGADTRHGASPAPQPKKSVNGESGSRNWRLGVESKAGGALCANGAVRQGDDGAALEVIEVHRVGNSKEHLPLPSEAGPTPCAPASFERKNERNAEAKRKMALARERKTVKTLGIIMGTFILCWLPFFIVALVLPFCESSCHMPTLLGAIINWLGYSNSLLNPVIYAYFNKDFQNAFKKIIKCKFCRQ

[27] = target: B2 bradykinin receptor (Homo sapiens) (UniProt P30411); experiment: B2/H Eurofins-Panlabs selectivity data (BI); conditions: filed as antagonist, Compound concentration 10.0 uM
[28] = target: Protein kinase C alpha type (Mus musculus) (UniProt P20444); experiment: PHORBOLE/M Eurofins-Panlabs selectivity data (BI); conditions: Compound concentration 10.0 uM
[29] = target: Histamine H1 receptor (Homo sapiens) (UniProt P35367); experiment: H1/H Eurofins-Panlabs selectivity data (BI); conditions: Compound concentration 10.0 uM
[30] = target: Muscarinic acetylcholine receptor M2 (Homo sapiens) (UniProt P08172); conditions: Compound concentration 10.0 uM
[31] = target: Ephrin type-A receptor 7 (Homo sapiens) (UniProt Q15375); conditions: Compound concentration 1000.0 nM
[32] = tested on: Tyrosine-protein kinase ABL1 (Homo sapiens), P00519 [M351T]; conditions: Compound concentration 1000.0 nM
[33] = target: Alpha-1B adrenergic receptor (Homo sapiens) (UniProt P35368); conditions: Compound concentration 10.0 uM
Sequence of Alpha-1B adrenergic receptor (Homo sapiens) (P35368 whole entry): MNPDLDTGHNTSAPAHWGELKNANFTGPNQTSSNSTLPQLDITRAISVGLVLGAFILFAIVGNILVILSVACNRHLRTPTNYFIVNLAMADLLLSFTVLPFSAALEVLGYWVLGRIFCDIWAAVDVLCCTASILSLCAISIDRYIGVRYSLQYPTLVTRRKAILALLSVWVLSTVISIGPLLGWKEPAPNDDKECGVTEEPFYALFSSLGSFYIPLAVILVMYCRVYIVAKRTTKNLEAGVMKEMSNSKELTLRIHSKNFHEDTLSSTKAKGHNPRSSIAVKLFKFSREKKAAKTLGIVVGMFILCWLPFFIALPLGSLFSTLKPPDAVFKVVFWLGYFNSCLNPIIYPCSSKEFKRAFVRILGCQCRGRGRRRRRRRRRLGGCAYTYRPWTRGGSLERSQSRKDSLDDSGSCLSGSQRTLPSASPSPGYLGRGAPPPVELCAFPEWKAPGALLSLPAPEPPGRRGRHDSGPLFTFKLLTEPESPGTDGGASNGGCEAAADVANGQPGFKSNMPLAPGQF

Sequence of Muscarinic acetylcholine receptor M3 (Homo sapiens) (P20309 whole entry, looked up): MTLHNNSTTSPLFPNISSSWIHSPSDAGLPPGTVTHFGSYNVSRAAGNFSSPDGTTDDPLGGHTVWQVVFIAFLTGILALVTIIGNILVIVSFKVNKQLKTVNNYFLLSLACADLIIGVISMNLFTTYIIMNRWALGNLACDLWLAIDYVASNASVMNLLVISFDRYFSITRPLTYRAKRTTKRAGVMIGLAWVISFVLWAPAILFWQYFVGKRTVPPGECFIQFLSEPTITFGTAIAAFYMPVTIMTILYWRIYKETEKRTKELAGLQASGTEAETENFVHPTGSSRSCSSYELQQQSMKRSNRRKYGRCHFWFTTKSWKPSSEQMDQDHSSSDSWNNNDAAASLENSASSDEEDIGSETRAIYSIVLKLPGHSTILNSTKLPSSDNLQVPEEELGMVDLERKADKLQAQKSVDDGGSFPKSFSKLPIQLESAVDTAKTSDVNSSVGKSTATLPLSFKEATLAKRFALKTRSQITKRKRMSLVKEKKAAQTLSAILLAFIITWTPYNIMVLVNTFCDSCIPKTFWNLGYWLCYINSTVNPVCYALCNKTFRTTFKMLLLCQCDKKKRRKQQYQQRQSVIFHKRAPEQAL
Sequence of Delta-type opioid receptor (Homo sapiens) (P41143 whole entry): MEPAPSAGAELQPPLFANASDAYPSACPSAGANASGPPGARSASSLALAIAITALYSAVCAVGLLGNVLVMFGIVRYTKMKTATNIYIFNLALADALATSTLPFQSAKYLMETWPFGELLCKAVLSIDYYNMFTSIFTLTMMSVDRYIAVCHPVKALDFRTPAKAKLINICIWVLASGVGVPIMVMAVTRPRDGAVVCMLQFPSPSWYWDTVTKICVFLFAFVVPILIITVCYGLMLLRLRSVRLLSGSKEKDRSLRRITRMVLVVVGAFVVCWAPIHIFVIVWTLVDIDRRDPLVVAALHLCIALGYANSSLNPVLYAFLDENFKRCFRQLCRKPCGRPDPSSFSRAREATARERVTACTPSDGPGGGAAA
Sequence of Kappa-type opioid receptor (Homo sapiens) (P41145 whole entry): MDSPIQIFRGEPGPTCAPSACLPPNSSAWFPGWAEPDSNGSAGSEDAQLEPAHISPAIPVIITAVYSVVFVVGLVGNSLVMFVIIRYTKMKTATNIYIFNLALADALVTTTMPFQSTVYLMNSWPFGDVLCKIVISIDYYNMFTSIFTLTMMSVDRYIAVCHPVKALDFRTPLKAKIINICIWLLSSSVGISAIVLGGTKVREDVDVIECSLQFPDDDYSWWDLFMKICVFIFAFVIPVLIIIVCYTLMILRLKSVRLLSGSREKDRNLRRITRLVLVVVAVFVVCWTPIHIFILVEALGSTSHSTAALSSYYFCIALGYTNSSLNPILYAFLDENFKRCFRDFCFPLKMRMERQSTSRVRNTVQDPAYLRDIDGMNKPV
Sequence of B2 bradykinin receptor (Homo sapiens) (P30411 whole entry): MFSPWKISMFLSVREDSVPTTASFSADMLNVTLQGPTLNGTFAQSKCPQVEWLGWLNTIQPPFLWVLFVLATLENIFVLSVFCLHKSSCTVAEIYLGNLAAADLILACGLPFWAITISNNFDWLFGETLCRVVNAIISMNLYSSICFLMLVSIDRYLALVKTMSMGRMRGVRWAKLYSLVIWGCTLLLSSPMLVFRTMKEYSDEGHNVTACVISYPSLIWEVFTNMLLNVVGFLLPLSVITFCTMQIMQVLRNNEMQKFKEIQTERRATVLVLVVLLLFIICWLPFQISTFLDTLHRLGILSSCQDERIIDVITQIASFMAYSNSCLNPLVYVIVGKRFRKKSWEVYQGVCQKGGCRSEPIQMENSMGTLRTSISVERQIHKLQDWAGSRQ
Sequence of Cysteinyl leukotriene receptor 1 (Homo sapiens) (Q9Y271 whole entry): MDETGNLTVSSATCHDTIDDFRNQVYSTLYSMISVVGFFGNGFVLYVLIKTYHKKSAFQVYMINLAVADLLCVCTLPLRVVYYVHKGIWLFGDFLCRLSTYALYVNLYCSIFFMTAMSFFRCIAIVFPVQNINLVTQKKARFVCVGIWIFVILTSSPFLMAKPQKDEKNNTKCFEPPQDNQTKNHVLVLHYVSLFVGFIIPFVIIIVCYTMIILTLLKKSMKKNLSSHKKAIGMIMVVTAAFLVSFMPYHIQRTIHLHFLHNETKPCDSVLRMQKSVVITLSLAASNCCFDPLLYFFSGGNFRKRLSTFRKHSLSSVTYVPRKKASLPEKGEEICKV
Sequence of Sigma non-opioid intracellular receptor 1 (Homo sapiens) (Q99720 whole entry): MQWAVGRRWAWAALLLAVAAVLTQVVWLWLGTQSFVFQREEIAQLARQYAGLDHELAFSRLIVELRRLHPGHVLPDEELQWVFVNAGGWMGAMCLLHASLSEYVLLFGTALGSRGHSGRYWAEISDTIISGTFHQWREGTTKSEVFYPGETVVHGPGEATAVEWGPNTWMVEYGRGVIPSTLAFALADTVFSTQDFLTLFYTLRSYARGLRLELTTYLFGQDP
Sequence of Ephrin type-A receptor 7 (Homo sapiens) (Q15375 28-998 limits assumed): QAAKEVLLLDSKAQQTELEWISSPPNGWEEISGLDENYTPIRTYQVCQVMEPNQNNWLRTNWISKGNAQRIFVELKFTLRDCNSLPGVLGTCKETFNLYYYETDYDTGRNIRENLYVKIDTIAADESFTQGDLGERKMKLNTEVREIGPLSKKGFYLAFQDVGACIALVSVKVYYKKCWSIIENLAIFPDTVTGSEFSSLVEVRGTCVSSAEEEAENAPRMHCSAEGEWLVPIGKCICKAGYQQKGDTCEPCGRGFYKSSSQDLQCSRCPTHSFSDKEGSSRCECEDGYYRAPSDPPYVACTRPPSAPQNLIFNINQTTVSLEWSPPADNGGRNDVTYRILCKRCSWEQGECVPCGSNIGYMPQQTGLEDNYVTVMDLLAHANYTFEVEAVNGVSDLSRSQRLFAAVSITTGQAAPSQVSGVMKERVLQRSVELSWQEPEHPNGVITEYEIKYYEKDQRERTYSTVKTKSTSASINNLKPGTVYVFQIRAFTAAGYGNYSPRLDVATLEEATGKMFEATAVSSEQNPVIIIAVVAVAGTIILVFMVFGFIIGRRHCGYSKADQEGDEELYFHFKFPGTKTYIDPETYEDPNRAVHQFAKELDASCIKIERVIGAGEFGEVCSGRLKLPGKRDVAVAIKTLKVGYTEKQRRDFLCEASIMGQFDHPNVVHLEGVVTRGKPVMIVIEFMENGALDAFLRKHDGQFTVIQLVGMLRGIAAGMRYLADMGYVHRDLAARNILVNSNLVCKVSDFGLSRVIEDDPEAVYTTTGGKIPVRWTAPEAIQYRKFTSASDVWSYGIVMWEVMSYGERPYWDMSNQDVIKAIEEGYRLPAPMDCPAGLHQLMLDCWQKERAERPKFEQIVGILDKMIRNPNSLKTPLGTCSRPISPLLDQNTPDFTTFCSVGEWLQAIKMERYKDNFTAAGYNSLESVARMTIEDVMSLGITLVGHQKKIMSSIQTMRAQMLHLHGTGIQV
Sequence of Sodium-dependent dopamine transporter (Homo sapiens) (Q01959 whole entry): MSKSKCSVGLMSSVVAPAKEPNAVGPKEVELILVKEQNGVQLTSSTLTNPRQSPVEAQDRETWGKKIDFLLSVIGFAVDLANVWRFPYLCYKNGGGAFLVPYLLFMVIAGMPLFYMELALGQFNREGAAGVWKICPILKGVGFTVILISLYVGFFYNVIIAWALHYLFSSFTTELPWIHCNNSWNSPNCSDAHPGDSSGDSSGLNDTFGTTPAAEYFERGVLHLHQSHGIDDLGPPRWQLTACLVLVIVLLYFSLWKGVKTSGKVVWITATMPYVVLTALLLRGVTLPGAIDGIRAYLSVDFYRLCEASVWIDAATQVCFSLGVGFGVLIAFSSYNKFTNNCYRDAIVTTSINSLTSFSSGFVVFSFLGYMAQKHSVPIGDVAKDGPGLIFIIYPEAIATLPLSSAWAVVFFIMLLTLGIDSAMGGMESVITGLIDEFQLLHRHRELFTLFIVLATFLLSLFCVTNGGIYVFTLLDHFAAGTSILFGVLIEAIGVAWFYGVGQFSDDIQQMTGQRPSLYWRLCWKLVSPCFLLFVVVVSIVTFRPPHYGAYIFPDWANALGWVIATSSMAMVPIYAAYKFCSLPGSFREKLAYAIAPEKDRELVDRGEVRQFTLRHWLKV
Sequence of Muscarinic acetylcholine receptor M2 (Homo sapiens) (P08172 whole entry): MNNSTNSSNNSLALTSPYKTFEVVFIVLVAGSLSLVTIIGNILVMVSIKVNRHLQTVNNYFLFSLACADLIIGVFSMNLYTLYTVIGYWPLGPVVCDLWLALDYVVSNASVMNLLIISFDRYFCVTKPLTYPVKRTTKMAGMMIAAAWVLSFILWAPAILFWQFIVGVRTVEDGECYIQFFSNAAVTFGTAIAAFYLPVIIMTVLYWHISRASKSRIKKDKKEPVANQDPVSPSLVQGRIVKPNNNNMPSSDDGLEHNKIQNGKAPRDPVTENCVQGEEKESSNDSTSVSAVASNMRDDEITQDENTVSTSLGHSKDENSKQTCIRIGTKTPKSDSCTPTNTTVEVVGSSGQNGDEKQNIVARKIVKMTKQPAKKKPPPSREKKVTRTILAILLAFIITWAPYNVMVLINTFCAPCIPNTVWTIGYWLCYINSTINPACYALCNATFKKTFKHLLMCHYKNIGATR

CS(=O)(=O)c1cc(C2(NC(=O)c3cncc4c3cnn4-c3ccc(F)cc3)CC2)ccn1 [BI 639667]
residual activity [1]: 81% | residual activity [2]: 28% | residual activity [3]: 87% | residual activity [4]: 90% | activity at 10 µM [5]: 71% (not active) | residual activity [6]: 91% | residual activity ([7]; Compound concentration 0.03 uM): 72% | residual activity ([7]; Compound concentration 0.1 uM): 52% | residual activity ([7]; Compound concentration 0.3 uM): 33% | residual activity ([7]; Compound concentration 1.0 uM): 17% | residual activity ([7]; Compound concentration 3.0 uM): 7.5% | residual activity ([7]; Compound concentration 10.0 uM): 3% | residual activity [8]: 101% | residual activity [9]: 95% | residual activity [10]: 98% | activity at 10 µM [11]: 58% (not active) | residual activity [12]: 99% | inhibition [13]: 17.6% | residual activity [14]: 105% | residual activity [15]: 91% | residual activity [16]: 93% | residual activity [17]: 99% | residual activity [18]: 104% | residual activity [19]: 55% | residual activity [20]: 91% | residual activity [21]: 79% | residual activity [22]: 94% | residual activity [23]: 96% | residual activity [24]: 91% | inhibition [25]: 22% | residual activity [26]: 89% | residual activity [27]: 100% | residual activity [28]: 93% | residual activity [29]: 100%

CS(=O)(=O)NCC[C@H](NC(=O)c1cncc2c1cnn2-c1ccc(F)cc1)c1ccnc(S(C)(=O)=O)c1 [BI 9307]
inhibition [30]: 17.4% | residual activity [31]: 82% | residual activity [32]: 100% | inhibition [33]: 15.8%
